Test results reported in publication PMC6152192, “Novel Methylselenoesters as Antiproliferative Agents” (Molecules : A Journal of Synthetic Chemistry and Natural …, 2017).
“And” between values parts separate entries of the source, which are not always exact repeats. Equal entries are not always repeated.

Legend:
Assay type in all cases: cell-based
[1] = system: HTB-54 (lung carcinoma); assay: MTT viability assay, HTB-54; settings: HTB-54, 72 h, MTT; for CC50: read-out: LC50 (the source's name)
How it was run: (§1)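 Cells (10,000/well; RPMI or, for BEAS-2B, DMEM with 10% FBS; 37 °C, 5% CO2) were treated 72 h with six concentrations from 0.1 to 100 μM, diluted from 0.01 M DMSO stock. MTT was added for 4 h, formazan dissolved in DMSO, absorbance read at 550 nm; GI50, TGI and LC50 derived.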

[2] = system: BEAS-2B (non-malignant bronchial epithelial); assay: MTT viability assay, BEAS-2B; settings: BEAS-2B non-malignant, 72 h, MTT; for CC50: read-out: LC50 (the source's name)
How it was run: as §1

[3] = system: MCF7 cells; assay: Caspase and autophagy inhibitors assay (Z-VAD-FMK, wortmannin; TUNEL); settings: MCF7, 50 μM Z-VAD-FMK 1 h pre-incubation, compound 5 25 μM or compound 15 30 μM, 48 h
Experimental: Se compounds induce different types of cell death, among which apoptosis and autophagy are the most common. To further elucidate the pathway through which compounds 5 and 15 trigger cell death, we used Z-VAD-FMK, a pan-caspase inhibitor and wortmannin, a PI3K inhibitor which blocks autophagy. MCF7 cells were pre-incubated for 1 h with 50 μM of Z-VAD-FMK or 100 nM wortmannin and co-incubated with compound 5 (25 μM), compound 15 (30 μM) or vehicle (control) for 48 h. Treated cells without inhibitors were also included.
2 × 10^6 MCF7 cells were seeded in 25 cm^2 flasks. After 24 h, cells were pre-treated with 50 μM of the pan-caspase inhibitor Z-VAD-FMK (BD Pharmingen) or 100 nM wortmannin (Santa Cruz Biotechnology, Heidelberg, Germany) for 1 h before co-incubating them with 25 μM of compound 5, 30 μM of compound 15 or vehicle (maximum amount of DMSO used in the treatments) for 48 h. Cells were collected and processed with the Apo-Direct kit as described previously.
Figure 6 Cell death induced by compounds 5 and 15 involves the caspases pathway. MCF7 cells were pre-incubated with 50 μM of Z-VAD-FMK or 100 nM wortmannin for 1 h before treating cells with compound 5 (25 μM), compound 15 (30 μM) or vehicle (control) for 48 h. Cells were stained with the Apo-Direct kit (TUNEL assay) and analyzed by flow cytometry. […]

[4] = system: MCF7 cells; assay: Cell cycle analysis (propidium iodide, Apo-Direct kit, flow cytometry); settings: for concentration from which the increase of cells in G2/M phase was evident: MCF7, 24 h; for effect on cell cycle distribution: MCF7, increasing concentrations 24 h or time-course; for time of significant decrease in the G0/G1 phase / treatment time after which an increase in G2/M phase was found: MCF7, time-course, 15 μM compound 5 or 30 μM compound 15
Experimental: Cell cycle arrest is the target of many anticancer drugs, as it is the first step to decrease cell proliferation. To gain a better understanding of the mechanism of these compounds, the effect of compounds 5 and 15 on cell cycle distribution was analyzed. MCF7 cells were treated with increasing concentrations of both compounds for 24 h or with 15 μM 5 or 30 μM 15 for different times. The negative control was treated with vehicle, and camptothecin (6 μM) was used as a positive control. Samples were stained with propidium iodide using the Apo-Direct kit (BD Pharmingen, Madrid, Spain) and processed by flow cytometry.
3 × 10^6 or 2 × 10^6 MCF7 cells were seeded in 25 cm^2 flasks for treatments up to 24 h or 48 h, respectively. DMSO (vehicle) or the dissolved compounds were added 24 h after seeding and cells were incubated for different times at 37 °C under 5% CO2. Cell cycle and cell death were analyzed simultaneously with the Apo-Direct kit (BD Pharmingen, Madrid, Spain), following the manufacturer’s protocol. Briefly, cells were fixed in 1% paraformaldehyde for 45 min at 0 °C, washed with PBS and incubated for at least 30 min in 70% ethanol on ice. Cells were then stained both with FITC-dUTP (1 h, 37 °C) and propidium iodide (30 min, room temperature) and analyzed by flow cytometry using a Coulter Epics XL cytometer (Beckman Coulter, Brea, CA, USA).
Figure 4 Compounds 5 and 15 induce cell cycle arrest in G2/M phase in MCF7. MCF7 cells were treated with different concentrations of compound 5, 15 or vehicle (control) for 24 h or for different time periods. Cells were stained with propidium iodide with the Apo-Direct kit and analyzed by flow cytometry. (A) Quantification of cell cycle distribution after 24 h treatment with increasing concentrations of compound 5; (B) Representative experiment of A; (C) Quantification of cell cycle distribution after 24 h treatment with increasing concentrations of compound 15; (D) Representative experiment of C; (E) Cell cycle distribution after treatment with vehicle, 15 μM of compound 5 or 30 μM of compound 15 for different times. Results represent the mean ± SEM of at least three independent experiments performed in duplicate. * p < 0.05, ** p < 0.01.

[5] = system: PC-3 (prostate adenocarcinoma); assay: MTT viability assay, PC-3; settings: PC-3, 72 h, MTT; for CC50: read-out: LC50 (the source's name)
How it was run: as §1

Row | Substance | GI50 [1] | TGI [1] [µM] | CC50 [1] [µM] | GI50 [2] [µM] | TGI [2] [µM] | CC50 [2] [µM] | decrease of cell death in the presence of the pan-caspase inhibitor Z-VAD-FMK [3] [%] | concentration from which the increase of cells in G2/M phase was evident [4] [µM] | effect on cell cycle distribution [4] | time of significant decrease in the G0/G1 phase [4] [h] | treatment time after which an increase in G2/M phase was found [4] [h] | GI50 [5] [µM] | CC50 [5] [µM] | TGI [5] [µM]
1 | Dimethyl 2,5-furandicarboselenoate [Compound 15] | > 10 µM and 15.6 µM | 46.0 ± 3.0 | 76.3 ± 1.1 | 2.6 ± 0.8 | 5.6 ± 0.9 | 8.6 ± 1.2 | 14 | ≥ 7 | increased the percentage of cells in G2/M phase | 16 | 8 | 4.8 ± 0.8 | 47.8 ± 4.4 | 
2 | Methyl 3-chlorothiophen-2-carboselenoate [Compound 5] | 4.9 ± 0.2 µM |  | 61.5 ± 3.2 | 2.7 ± 0.5 | 5.3 ± 0.7 | 8 ± 1 | 36 | ≥ 15 | increased the percentage of cells in G2/M phase | 8 | 8 | 8.6 ± 1.7 | 91.6 ± 3.9 | 47.7 ± 2.9
